One series relates to A-549. Description: SRB cell growth/viability assay, A-549. To be noted: for GI50: read-out: A-549 GI50. The text has this: (§1) A colorimetric type of assay, using sulforhodamine B (SRB) reaction has been adapted for a quantitative measurement of cell growth and viability: see Skehan, P. A. et al. J. Natl. Cancer Inst., 1990, 82, 1107-1112. This form of the assay employs 96 well cell culture microplates of 9 mm diameter (Faircloth, G. T.; Stewart, D. and Clement, J. J., Journal of Tissue and Culture Methods, 1983, 11, 201-205; Mosmann, T. Journal of Immunological Methods, 1983, 65, 55-63.).
(§2) Most of the cell lines are obtained from American Type Culture Collection (ATCC) derived from different human cancer types. Cells are maintained in RPMI 1640 10% FBS, supplemented with 0.1 g/l penicillin and 0.1 g/l streptomycin sulfate and then incubated at 37° C., 5% CO2 and 98% humidity. For the experiments, cells were harvested from subconfluent cultures using trypsin and resuspended in fresh medium before plating.
(§3) Cells are seeded in 96 well microtiter plates, at 5×10^3 cells per well in aliquots of 195 μl medium, and they are allowed to attach to the plate surface by growing in drug free medium for 18 hours. Afterward, samples are in aliquots of 5 pi in a ranging from 10 to 10-8 μg/ml dissolved in DMSO/EtOH (0.2% in PS buffer). After 48 hours exposure, the antitumour effect are measured by the SRB methodology: cells are fixed by adding 50 μl of cold 50% (w/v) trichloroacetic acid (TCA) and incubating for 60 minutes at 4° C. Plates are washed with deionized water and dried. 100 μl of SRB solution (0.4% w/v in 1% acetic acid) is added to each microtiter well and incubated for 10 minutes at room temperature. Unbound SRB is removed by washing with 1% acetic acid. Plates are air-dried and bound stain is solubilized with Tris buffer. Optical densities are read on an automated spectrophotometric plate reader at a single wavelength of 490 nm.
(§4) The values for mean +/− SD of data from triplicate wells are calculated Some parameters for cellular responses can be calculated: […], TGI=total growth inhibition (cytostatic effect) and LC=cell killing (cytotoxic effect).

The test system of another series is HT-29. Kind of series: SRB cell growth/viability assay, HT-29. The settings on record: for GI50: read-out: HT-29 GI50.
From the text: as §1, §2, §3, §4

The mark [1] stands for this setting: Homo sapiens, A549, 48 h, read-out: A-549 LC50.
Setting [2] is: Homo sapiens, HT-29, 48 h, read-out: HT-29 LC50.

The values below come from patent publication US7320981B2, “Variolin derivatives as anti-cancer agents” (Pharma Mar, S.A., priority 2000, dated 2008).

Like-named read-outs stand apart in the source and are kept apart here. Where only a bound is given, the exact number is not on record here.

One may read the GI50 as the concentration giving 50% growth inhibition. Consider `CS(=O)(=O)c1nccc(-c2c3cccnc3n3c(N)nccc23)n1` [Compound 6, sulfonyldeoxyvariolin], for which the GI50 in the series with A-549 (Homo sapiens, A549, 48 h) was determined as 4.4 µM; in the series with HT-29 (Homo sapiens, HT-29, 48 h) it was 29 µM. Moreover, the CC50 in the series with A-549 (setting [1]) and in the series with HT-29 (setting [2]) was > 150 µM in each case.
Turning to `CSc1nccc(-c2c3cccnc3n3c(SC)nccc23)n1` [Compound 19], the GI50 is 5.9 µM in the series on A-549 (Homo sapiens, A549, 48 h) and 5.9 µM in the series with HT-29 (Homo sapiens, HT-29, 48 h). Besides, the CC50 with A-549 (setting [1]) and with HT-29 (setting [2]) was 29 µM each time.
For `C[S+]([O-])c1nccc(-c2c3cccnc3n3c(N)nccc23)n1` (stereo not drawn) [Compound 22, sulfinyldeoxyvariolin], the GI50 amounted to 1.2 µM with A-549 (Homo sapiens, A549, 48 h) and 0.92 µM with HT-29 (Homo sapiens, HT-29, 48 h). The CC50 in the series with A-549 (setting [1]) is 92 µM; in the series with HT-29 (setting [2]) it was > 150 µM.
The matching figures for `CC(=O)N(C(C)=O)c1nccc(-c2c3cccnc3n3c(N)nccc23)n1` [Compound 23a, N′-bisacetyldeoxyvariolin]: 0.28 µM, 0.14 µM, 2.8 µM and 2.8 µM.
The matching figures for `CC(=O)Nc1nccc2c(-c3ccnc(N(C(C)=O)C(C)=O)n3)c3cccnc3n12` [Compound 23b, N′-bisacetyl-N-acetyldeoxyvariolin]: 0.74 µM, 0.1 µM, 7.4 µM and 2.5 µM.
Taken in the same sequence, the figures for `CC(=O)N(C(C)=O)c1nccc(-c2c3cccnc3n3c(N(C(C)=O)C(C)=O)nccc23)n1` [Compound 23c, N′-bisacetyl-N-bisacetyldeoxyvariolin] were 2.2 µM, 1.1 µM, 22 µM and 18 µM.
Consider `CC(=O)Nc1nccc(-c2c3cccnc3n3c(N)nccc23)n1` [Compound 23d, N′-acetyldeoxyvariolin], for which the GI50 in the series with A-549 (Homo sapiens, A549, 48 h) turned out to be 0.63 µM; in the series on HT-29 (Homo sapiens, HT-29, 48 h), 0.63 µM. For the same molecule, the CC50 in the series on A-549 (setting [1]) and with HT-29 (setting [2]) was 3.2 µM in each case.
As to `CC(=O)Nc1nccc(-c2c3cccnc3n3c(NC(C)=O)nccc23)n1` [Compound 23e, N′-acetyl-N-acetyldeoxyvariolin], the GI50 in the series on A-549 (Homo sapiens, A549, 48 h) stood at 2.2 µM; in the series with HT-29 (Homo sapiens, HT-29, 48 h), 5.5 µM. Further, the CC50 with A-549 (setting [1]) is 28 µM; in the series on HT-29 (setting [2]), > 28 µM.
Taken in the same sequence, the figures for `Nc1nccc2c(-c3ccnc(N(C(=O)/C=C/c4ccccc4)C(=O)/C=C/c4ccccc4)n3)c3cccnc3n12` [Compound 24a, N′-biscinnamoyldeoxyvariolin] were 0.12 µM, 4.9 µM, 12 µM and > 120 µM.
For `O=C(C=Cc1ccccc1)Nc1nccc2c(-c3ccnc(N(C(=O)/C=C/c4ccccc4)C(=O)/C=C/c4ccccc4)n3)c3cccnc3n12` [Compound 24b, N′-biscinnamoyl-N-cinnamoyldeoxyvariolin], the GI50 in the series with A-549 (Homo sapiens, A549, 48 h) was found to be 3 µM; in the series on HT-29 (Homo sapiens, HT-29, 48 h) it was 1.5 µM. Also, the CC50 in the series with A-549 (setting [1]) and in the series with HT-29 (setting [2]) was 75 µM throughout.
Regarding `Nc1nccc2c(-c3ccnc(NC(=O)C(F)(F)F)n3)c3cccnc3n12` [Compound 26, N′-trifluoroacetyldeoxyvariolin], the GI50 amounted to 0.27 µM in the series on A-549 (Homo sapiens, A549, 48 h) and 0.8 µM in the series on HT-29 (Homo sapiens, HT-29, 48 h). The CC50 in the series on A-549 (setting [1]) came to 27 µM; in the series on HT-29 (setting [2]), 110 µM.
Taken in the same sequence, the figures for `COc1nccc(-c2c3cccnc3n3c(N)nccc23)n1` [Compound 27, methoxydeoxyvariolin] were 0.068 µM, 0.17 µM, 2.7 µM and 34 µM.
Taken in the same sequence, the figures for `Nc1nccc2c(-c3ccnc(N4CCCCC4)n3)c3cccnc3n12` [Compound 28a, piperidinyldeoxyvariolin] were 8.7 µM, 5.8 µM, > 29 µM and > 29 µM.
For `CCNc1nccc(-c2c3cccnc3n3c(N)nccc23)n1` [Compound 28b, N′-ethyldeoxyvariolin], the GI50 with A-549 (Homo sapiens, A549, 48 h) was > 33 µM; with HT-29 (Homo sapiens, HT-29, 48 h), > 33 µM. The CC50 in the series on A-549 (setting [1]) and in the series with HT-29 (setting [2]) was > 33 µM throughout.
On to `CCCCN(C)c1nccc(-c2c3cccnc3n3c(N)nccc23)n1` [Compound 28c, N′-butylmethyldeoxyvariolin], for which the GI50 in the series on A-549 (Homo sapiens, A549, 48 h) stood at 2.9 µM; with HT-29 (Homo sapiens, HT-29, 48 h), 2.9 µM. For the same molecule, the CC50 with A-549 (setting [1]) and with HT-29 (setting [2]) was 23 µM throughout.
`Nc1nccc2c(-c3ccnc(NCc4ccccc4)n3)c3cccnc3n12` [Compound 28d, N′-benzyldeoxyvariolin]: the GI50 in the series on A-549 (Homo sapiens, A549, 48 h) was 1.4 µM; in the series with HT-29 (Homo sapiens, HT-29, 48 h), 1.4 µM. Moreover, the CC50 with A-549 (setting [1]) amounted to 27 µM; in the series with HT-29 (setting [2]) it was 22 µM.
For `COc1ccc(CNc2nccc(-c3c4cccnc4n4c(NCc5ccc(OC)cc5)nccc34)n2)cc1` [Compound 29, N′,N-bis(p-methoxybenzyl)deoxyvariolin], the GI50 with A-549 (Homo sapiens, A549, 48 h) is > 97 µM; in the series on HT-29 (Homo sapiens, HT-29, 48 h), > 97 µM. For the same molecule, the CC50 in the series on A-549 (setting [1]) and in the series with HT-29 (setting [2]) was > 97 µM in each case.
With bis-sulfinyldeoxyvariolin [Compound 20], the CC50 in the series on A-549 and with HT-29 was > 130 µM throughout. The GI50 in the series on A-549 (Table 2, A-549, 48 hours exposure, SRB) was 54 µM; with HT-29 (Table 2, HT-29, 48 hours exposure, SRB) it was 110 µM.
